Experimental data reported in paper doi:10.1101/2024.02.29.582594, “Hachiman is a genome integrity sensor” (bioRxiv, 2024).

Target: T1, HamB (Escherichia coli, UniProt A0A426EXV0)
T1 construct: gene DU321_04165; full-length HamB alone, N-terminal 10xHis-MBP-TEV, tag cut with TEV; expressed in E. coli BL21-AI
T1 sequence (A0A426EXV0 1-1174): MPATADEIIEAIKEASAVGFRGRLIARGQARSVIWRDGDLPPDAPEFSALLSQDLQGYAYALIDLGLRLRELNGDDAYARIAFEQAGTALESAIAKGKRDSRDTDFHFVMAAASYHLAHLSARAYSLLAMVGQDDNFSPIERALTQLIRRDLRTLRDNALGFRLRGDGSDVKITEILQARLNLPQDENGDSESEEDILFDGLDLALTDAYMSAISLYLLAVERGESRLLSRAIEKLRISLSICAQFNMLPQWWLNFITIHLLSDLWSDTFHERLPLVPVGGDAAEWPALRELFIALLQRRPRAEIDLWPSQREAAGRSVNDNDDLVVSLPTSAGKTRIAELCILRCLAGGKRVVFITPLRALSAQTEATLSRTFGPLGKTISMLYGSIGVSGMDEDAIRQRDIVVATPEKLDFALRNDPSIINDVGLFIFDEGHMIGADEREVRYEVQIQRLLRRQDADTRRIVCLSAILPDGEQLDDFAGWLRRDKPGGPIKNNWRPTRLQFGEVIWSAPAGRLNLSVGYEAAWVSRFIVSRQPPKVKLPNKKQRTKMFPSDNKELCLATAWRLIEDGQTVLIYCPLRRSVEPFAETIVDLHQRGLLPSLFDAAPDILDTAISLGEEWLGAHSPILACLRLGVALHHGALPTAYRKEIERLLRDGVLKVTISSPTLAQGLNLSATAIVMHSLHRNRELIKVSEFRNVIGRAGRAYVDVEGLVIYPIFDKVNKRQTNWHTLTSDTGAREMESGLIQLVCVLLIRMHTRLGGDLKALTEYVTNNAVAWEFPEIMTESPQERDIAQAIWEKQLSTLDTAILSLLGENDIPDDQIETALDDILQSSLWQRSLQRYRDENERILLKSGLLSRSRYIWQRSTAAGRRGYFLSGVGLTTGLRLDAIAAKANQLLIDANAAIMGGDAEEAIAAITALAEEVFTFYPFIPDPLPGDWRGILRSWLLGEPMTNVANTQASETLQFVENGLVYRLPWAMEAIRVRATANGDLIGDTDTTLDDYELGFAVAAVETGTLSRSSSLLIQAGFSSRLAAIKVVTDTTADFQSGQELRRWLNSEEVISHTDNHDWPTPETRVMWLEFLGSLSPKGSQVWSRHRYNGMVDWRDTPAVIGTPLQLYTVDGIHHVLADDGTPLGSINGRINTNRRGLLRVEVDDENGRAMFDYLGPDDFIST
Test: malachite green phosphate release assay
Assay type: biochemical
Conditions: 40 nM HamB, 100 nM ssDNA, 1 mM ATP, 2 mM MgSO4, pH 8.8, 37 °C, 30 min

Nc1ncnc2c1ncn2[C@@H]1O[C@H](COP(=O)(O)OP(=O)(O)OP(=O)(O)O)[C@@H](O)[C@H]1O [ATP]
malachite green phosphate release assay: we found strong HamB ATPase activity in the presence of single-stranded DNA
